Consider 28 compounds from patent publication US10208030B2, “GPR119 agonist compounds” (Mankind Pharma Ltd., priority 2016, dated 2019).

One assay deals with T1, hGPR119 (Homo sapiens, UniProt Q8TDV5).
T1 construct: expressed in transfected cells; host or cells: CHO cells (CHO-hGPR119)
T1 sequence (Q8TDV5 1-335): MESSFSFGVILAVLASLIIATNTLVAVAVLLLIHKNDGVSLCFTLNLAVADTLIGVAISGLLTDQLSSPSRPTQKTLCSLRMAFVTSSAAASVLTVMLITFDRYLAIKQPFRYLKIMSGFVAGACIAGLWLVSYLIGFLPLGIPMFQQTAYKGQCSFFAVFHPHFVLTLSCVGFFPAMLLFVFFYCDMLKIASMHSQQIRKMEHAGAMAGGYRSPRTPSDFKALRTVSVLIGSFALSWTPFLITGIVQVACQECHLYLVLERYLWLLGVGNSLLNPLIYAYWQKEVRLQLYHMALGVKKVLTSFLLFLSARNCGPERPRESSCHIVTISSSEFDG
Briefly: In vitro cyclic AMP assay (Cisbio HTRF) in CHO-hGPR119 cells. The assay is classed as cell-based. Conditions: 1 h, cAMP, 1 μM, 60 min, read-out: Induction (% induction at 1 μM). The procedure: cAMP measurements were done using Cisbio dynamic 2 HTRF kit according to the manufacturer's protocol. Briefly, CHO-hGPR119 cells were plated at a cell density of 5000 cells/well/5 μl into a white small volume 384 well plate. The final concentrations of IBMX and DMSO used were 1 mM and 0.5% respectively. Cells were treated with various concentrations of the test compound for 60 min at room temperature. Cells were lysed by buffer containing Anti-cAMP antibody and d2-cAMP reagents and incubated for 1 hour at room temperature. HTRF was measured at 337 nm excitation and emission wavelengths of 665 nm and 620 nm on a microplate reader (Flurostar, BMG Labtech). Graphpad prism software was utilized for EC50 determinations.
In general terms: In TR-FRET formats the signal depends on donor and acceptor labels being close together.
In the case of `CC(C)c1noc(N2CCC(C(C)Oc3nn4cc(-c5ccncc5F)nc4s3)CC2)n1` (stereo in doubt) [Compound 1064, (S)-5-(4-(1-((6-(3-fluoropyridin-4-yl)imidazo[2,1-b][1,3,4]thiadiazol-2-yl)oxy)ethyl)piperidin-1-yl)-3-isopropyl-1,2,4-oxadiazole], the activation at 1 µM stood at 75%.
The same measure, in the same setting: to `CCc1cnc(N2CCC(C(C)Oc3nn4cc(-c5ccncc5)nc4s3)CC2)nc1` (stereo in doubt) [Compound 1080, 2-((S)-1-(1-(5-ethylpyrimidin-2-yl)piperidin-4-yl)ethoxy)-6-(pyridin-4-yl)imidazo[2,1-b][1,3,4]thiadiazole] belongs 74%; to `CC(C)c1noc(N2CCC(C(C)Oc3nn4cc(-c5ccc(C(F)(F)F)nc5)nc4s3)CC2)n1` (stereo in doubt) [Compound 1084, 2-((S)-1-(1-(3-isopropyl-1,2,4-oxadiazol-5-yl)piperidin-4-yl)ethoxy)-6-(6-(trifluoromethyl)pyridin-3-yl)imidazo[2,1-b][1,3,4]thiadiazole], 72%.
In the case of `CCc1cnc(N2CCC(C(C)Oc3nn4cc(-c5ccc(S(C)(=O)=O)nc5F)nc4s3)CC2)nc1` (stereo in doubt) [Compound 1102, 2-((S)-1-(1-(5-ethylpyrimidin-2-yl)piperidin-4-yl)ethoxy)-6-(2-fluoro-6-(methylsulfonyl)pyridin-3-yl)imidazo[2,1-b][1,3,4]thiadiazole], the activation at 1 µM was 84%.
On the same count and under the same terms, then `CC(C)c1noc(C2CCN(c3nsnc3Oc3ccc(-n4cnnn4)cc3)CC2)n1` [Compound 1003, 5-(1-(4-(4-(1H-tetrazol-1-yl)phenoxy)-1,2,5-thiadiazol-3-yl)piperidin-4-yl)-3-isopropyl-1,2,4-oxadiazole], with 3%; and `CCc1cnc(N2CCC(c3nsnc3-c3ccc(S(C)(=O)=O)cc3)CC2)nc1` [Compound 1004, 3-(1-(5-ethylpyrimidin-2-yl)piperidin-4-yl)-4-(4-(methylsulfonyl)phenyl)-1,2,5-thiadiazole], with 6%; and `CCc1cnc(N2CC=C(c3nsnc3Oc3ccc(-n4cnnn4)cc3)CC2)nc1` [Compound 1005, 3-(4-(1H-tetrazol-1-yl)phenoxy)-4-(1-(5-ethylpyrimidin-2-yl)-1,2,3,6-tetrahydropyridin-4-yl)-1,2,5-thiadiazole], with 2%.
With `CC(C)c1noc(C2CCN(c3nsnc3COc3ccc(S(C)(=O)=O)cc3F)CC2)n1` [Compound 1006, 5-(1-(4-((2-fluoro-4-(methylsulfonyl)phenoxy)methyl)-1,2,5-thiadiazol-3-yl)piperidin-4-yl)-3-isopropyl-1,2,4-oxadiazole], the activation at 1 µM was found to be 9%.
Still for that read-out and setting: then `CC(C)c1noc(C2CCN(c3nsnc3-c3ccc(S(C)(=O)=O)cc3)CC2)n1` [Compound 1007, 3-isopropyl-5-(1-(4-(4-(methylsulfonyl)phenyl)-1,2,5-thiadiazol-3-yl)piperidin-4-yl)-1,2,4-oxadiazole], with -8%; and `CC(C)OC(=O)N1CCN(c2nsnc2Oc2ccc(-n3cnnn3)cc2)CC1` [Compound 1010, isopropyl 4-(4-(4-(1H-tetrazol-1-yl)phenoxy)-1,2,5-thiadiazol-3-yl)piperazine-1-carboxylate], with 2%.
Same read-out and setting: to `CC(C)c1noc(N2CCC(COc3nsnc3OCC3CCN(c4nc(C(C)C)no4)CC3)CC2)n1` [Compound 1011, 3,4-bis((1-(3-isopropyl-1,2,4-oxadiazol-5-yl)piperidin-4-yl)methoxy)-1,2,5-thiadiazole] belongs 2%; to `CC(C)c1noc(C2CCN(c3nsnc3C(=O)Nc3ccc(S(C)(=O)=O)cc3F)CC2)n1` [Compound 1012, N-(2-fluoro-4-(methylsulfonyl)phenyl)-4-(4-(3-isopropyl-1,2,4-oxadiazol-5-yl)piperidin-1-yl)-1,2,5-thiadiazole-3-carboxamide], 22%; to `CCc1cnc(N2CCC(c3nsnc3C(=O)Nc3ccc(S(C)(=O)=O)cc3F)CC2)nc1` [Compound 1015, 4-(1-(5-ethylpyrimidin-2-yl)piperidin-4-yl)-N-(2-fluoro-4-(methylsulfonyl)phenyl)-1,2,5-thiadiazole-3-carboxamide], 3%.
Same read-out and setting: to `CC(C)c1noc(C2CCN(c3nn4cc(-c5ccc(S(C)(=O)=O)cc5)nc4s3)CC2)n1` [Compound 1016, 3-isopropyl-5-(1-(6-(4-(methylsulfonyl)phenyl)imidazo[2,1-b][1,3,4]thiadiazol-2-yl)piperidin-4-yl)-1,2,4-oxadiazole] belongs 54%; to `CC(C)c1noc(N2CCC(COc3nn4cc(-c5ccc(S(C)(=O)=O)cc5)nc4s3)CC2)n1` [Compound 1017, 3-isopropyl-5-(4-(((6-(4-(methylsulfonyl)phenyl)imidazo[2,1-b][1,3,4]thiadiazol-2-yl)oxy)methyl)piperidin-1-yl)-1,2,4-oxadiazole], 39%; to `CC(C)c1noc(N2CCC(Oc3nn4cc(-c5ccc(S(C)(=O)=O)cc5)nc4s3)CC2)n1` [Compound 1018, 3-isopropyl-5-(4-((6-(4-(methylsulfonyl)phenyl)imidazo[2,1-b][1,3,4]thiadiazol-2-yl)oxy)piperidin-1-yl)-1,2,4-oxadiazole], 20%.
With `CS(=O)(=O)c1ccc(-c2cn3nc(C4CCN(Cc5ccccc5)CC4)sc3n2)cc1` [Compound 1019, 2-(1-benzylpiperidin-4-yl)-6-(4-(methylsulfonyl)phenyl)imidazo[2,1-b][1,3,4]thiadiazole], the activation at 1 µM was determined as 11%.
Same read-out and setting: to `CC(C)OC(=O)N1CCN(c2nn3cc(-c4ccc(S(C)(=O)=O)cc4)nc3s2)CC1` [Compound 1020, isopropyl 4-(6-(4-(methylsulfonyl)phenyl)imidazo[2,1-b][1,3,4]thiadiazol-2-yl)piperazine-1-carboxylate] belongs 1%; to `CC(C)OC(=O)N1CCC(N(C)c2nn3cc(-c4ccc(S(C)(=O)=O)cc4)nc3s2)CC1` [Compound 1022, isopropyl 4-(methyl(6-(4-(methylsulfonyl)phenyl)imidazo[2,1-b][1,3,4]thiadiazol-2-yl)amino)piperidine-1-carboxylate], 16%; to `CCc1cnc(N2CCC(Nc3nn4cc(-c5ccc(S(C)(=O)=O)cc5)nc4s3)CC2)nc1` [Compound 1023, N-(1-(5-ethylpyrimidin-2-yl)piperidin-4-yl)-6-(4-(methylsulfonyl)phenyl)imidazo[2,1-b][1,3,4]thiadiazol-2-amine], 0%.
Same read-out and setting: then `CC(C)OC(=O)N1CCC(c2nn3cc(-c4ccc(S(C)(=O)=O)cc4)nc3s2)CC1` [Compound 1024, isopropyl 4-(6-(4-(methylsulfonyl)phenyl)imidazo[2,1-b][1,3,4]thiadiazol-2-yl)piperidine-1-carboxylate], with 38%.
Same read-out and setting: to `CN(c1nn2cc(-c3ccc(S(C)(=O)=O)cc3)nc2s1)C1CCN(C(N)=O)CC1` [Compound 1025, 4-(methyl(6-(4-(methylsulfonyl)phenyl)imidazo[2,1-b][1,3,4]thiadiazol-2-yl)amino)piperidine-1-carboxamide] belongs 11%.
Regarding `CC(C)c1noc(N2CCC(c3nn4cc(-c5ccc(S(C)(=O)=O)cc5)nc4s3)CC2)n1` [Compound 1027, 3-isopropyl-5-(4-(6-(4-(methylsulfonyl)phenyl)imidazo[2,1-b][1,3,4]thiadiazol-2-yl)piperidin-1-yl)-1,2,4-oxadiazole], the activation at 1 µM was determined as 41%.
Still for that read-out and setting: to `CC(C)c1noc(N2CCC(N(C)c3nn4cc(-c5ccc(S(C)(=O)=O)cc5)nc4s3)CC2)n1` [Compound 1029, N-(1-(3-isopropyl-1,2,4-oxadiazol-5-yl)piperidin-4-yl)-N-methyl-6-(4-(methylsulfonyl)phenyl)imidazo[2,1-b][1,3,4]thiadiazol-2-amine] belongs 9%; to `CC(C)OC(=O)N1CCC(c2cn3nc(-c4ccc(S(C)(=O)=O)cc4)sc3n2)CC1` [Compound 1030, isopropyl 4-(2-(4-(methylsulfonyl)phenyl)imidazo[2,1-b][1,3,4]thiadiazol-6-yl)piperidine-1-carboxylate], 26%; to `CS(=O)(=O)c1ccc(-c2cn3nc(C4CCN(S(C)(=O)=O)CC4)sc3n2)cc1` [Compound 1031, 6-(4-(methylsulfonyl)phenyl)-2-(1-(methylsulfonyl)piperidin-4-yl)imidazo[2,1-b][1,3,4]thiadiazole], 1%.
Still for that read-out and setting: then `CC(C)c1noc(N2CCC(c3cn4nc(-c5ccc(S(C)(=O)=O)cc5)sc4n3)CC2)n1` [Compound 1032, 3-isopropyl-5-(4-(2-(4-(methylsulfonyl)phenyl)imidazo[2,1-b][1,3,4]thiadiazol-6-yl)piperidin-1-yl)-1,2,4-oxadiazole], with 41%; and `CN(C)C(=O)N1CCC(c2nn3cc(-c4ccc(S(C)(=O)=O)cc4)nc3s2)CC1` [Compound 1033, N,N-dimethyl-4-(6-(4-(methylsulfonyl)phenyl)imidazo[2,1-b][1,3,4]thiadiazol-2-yl)piperidine-1-carboxamide], with 2%.

Still in this assay, the particulars now being: cAMP, class symbols, legend not given.
`CC(C)c1noc(N2CCC(C(C)Oc3nn4cc(-c5ccncc5F)nc4s3)CC2)n1` (stereo in doubt) [Compound 1064, (S)-5-(4-(1-((6-(3-fluoropyridin-4-yl)imidazo[2,1-b][1,3,4]thiadiazol-2-yl)oxy)ethyl)piperidin-1-yl)-3-isopropyl-1,2,4-oxadiazole]: the EC50 entry is “A++”.
Same read-out and setting: to `CCc1cnc(N2CCC(C(C)Oc3nn4cc(-c5ccc(S(C)(=O)=O)nc5F)nc4s3)CC2)nc1` (stereo in doubt) [Compound 1102, 2-((S)-1-(1-(5-ethylpyrimidin-2-yl)piperidin-4-yl)ethoxy)-6-(2-fluoro-6-(methylsulfonyl)pyridin-3-yl)imidazo[2,1-b][1,3,4]thiadiazole] belongs “A+”.
